Measurements taken from patent US11981680B2, “Substituted thienopyrroles as PAD4 inhibitors” (BRISTOL-MYERS SQUIBB COMPANY, priority 2018, dated 2024).
pIC50: −log10 of the molar value.

Molecular target: human PAD4 (hPAD4) (Homo sapiens (Human), UniProt Q9UM07)
Experiment: RFMS Human PAD4 Functional Assay
Assay type: biochemical
Settings: rapid-fire mass spectrum (RFMS) assay; 5 nM hPAD4 enzyme, 250 μM BAEE, 30 min preincubation at 37° C.
Experimental: Compounds of the present invention were assayed as inhibitors of PAD4 using the assay protocol described below.
RFMS Human PAD4 Functional Assay:
Compounds were solubilized in 100% DMSO to achieve a10 mM compound concentration. Compound stock solutions were stored at RT. A series of dilutions were prepared in DMSO and mixed 8 times with 20 μL mixing volume. Final top concentration of compound in the assay is 50 μM. Final assay conditions were as follows: • Reaction volume: 26 μl • Assay buffer: 25 mM hepes, pH 7.5, 5 mM NaCl, 1 mM DTT, 0.2 mg/ml BSA, 0.01% CHAPS, 50 μM Calcium, and 5 μM TPEN • Final concentrations: 5 nM hPAD4 enzyme, 250 μM BAEE, and 0.5% DMSO • Total incubation time: 30 mins compound and enzyme preincubation at 37° C., 90 min enzyme/substrate reaction, 30 min reaction with phenyl glyoxal at 37° C. • Stop solution: 40 μl 5% TCA in ACN
0.13 μL of compound solution was added to 13 μL of 10 nM PAD4 in assay buffer. After 30 min 13 μl of 500 μM of BAEE was added in 25 mM hepes, pH 7.5, 5 mM NaCl, 1 mM DTT, 0.2 mg/ml BSA, 0.01% CHAPS, 50 μM Calcium, 5 μM TPEN was added and the reaction incubated for 90 min at 37° C. The enzymatic reaction was quenched by addition of 15 μl of 6.1N TCA, 100% Final Concentration is 20%, 35 μl of 8.5 mM phenyl glyoxal (final concentration 4 mM) is then added and the reaction is incubated for 30 min at 37° C.
After 30 minutes the plates are spun down to remove all precipitate. The enzyme reaction was quenched with an equal volume of methanol containing internal standard (modified citrulline). Samples were loaded onto the Rapid Fire RF300 system (Agilent) wherein they were first sipped for 1000 ms and then directly loaded to a C18 separations cartridge using a mixture of acetonitrile containing 0.01% formic acid for 3000 ms desalting. The flow rate of the mobile phase was 1.5 ml/min. Once the samples were eluted from the cartridge, a mobile phase of acetonitrile containing 0.01% formic acid was used to move the samples into the mass spectrometer for 4000 ms at a flow rate of 1.25 ml/min/Sciex API5500 triple quadrupole mass spectrometer (Applied Biosystems) equipped with ESI was used to analyze the peptidyl citrulline and internal standard ions.
MRM transition of product and internal standard were monitored at m/z 424.5 to 350.4 and m/z 293 to 247 respectively. The dwell time for each transition was set at 200 ms, and the ESI voltage was used at 5500 with a source temperature of 400° C. Extracted ion peaks for each transition were integrated using the Rapid Fire Integrator software. Peak area of analyte was normalized with internal standard.).

Chain of human PAD4 (hPAD4) (Q9UM07 whole entry): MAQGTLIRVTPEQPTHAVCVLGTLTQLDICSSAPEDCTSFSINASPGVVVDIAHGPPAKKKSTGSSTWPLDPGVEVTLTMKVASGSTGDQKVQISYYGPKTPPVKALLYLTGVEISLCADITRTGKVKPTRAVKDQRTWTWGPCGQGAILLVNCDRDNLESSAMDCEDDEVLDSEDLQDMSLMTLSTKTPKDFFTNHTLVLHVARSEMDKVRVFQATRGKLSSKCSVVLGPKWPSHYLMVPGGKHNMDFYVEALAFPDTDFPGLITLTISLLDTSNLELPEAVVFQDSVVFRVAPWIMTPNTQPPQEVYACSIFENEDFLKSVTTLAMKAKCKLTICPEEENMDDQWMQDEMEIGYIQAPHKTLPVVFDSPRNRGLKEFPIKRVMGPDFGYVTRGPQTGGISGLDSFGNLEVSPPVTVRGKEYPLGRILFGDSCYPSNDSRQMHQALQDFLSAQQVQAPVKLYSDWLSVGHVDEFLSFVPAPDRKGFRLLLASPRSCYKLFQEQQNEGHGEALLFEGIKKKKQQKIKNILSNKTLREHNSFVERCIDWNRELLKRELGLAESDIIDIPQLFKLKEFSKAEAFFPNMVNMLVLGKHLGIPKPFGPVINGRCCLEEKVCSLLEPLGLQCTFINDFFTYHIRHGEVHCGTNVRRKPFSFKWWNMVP

| SMILES | pIC50 |
| --- | --- |
| COc1cc(C(=O)N2C[C@H]3CC[C@@H]2[C@@H]3N)cc2nc(-c3cc4scc(C5CNC5)c4n3CC3CC3)n(C)c12 [Example 16, ((1R,4R,7R)-7-amino-2-azabicyclo[2.2.1]heptan-2-yl)(2-(3-(azetidin-3-yl)-4-(cyclopropylmethyl)-4H-thieno[3,2-b]pyrrol-5-yl)-7-methoxy-1-methyl-1H-benzo[d]imidazol-5-yl)methanone] | 6.90 |
| COc1cc(C(=O)N2C[C@H]3CC[C@@H]2[C@@H]3N)cc2nc(-c3cc4scc(C5CCOC5)c4n3CC3CC3)n(C)c12 (stereo partly drawn) [Example 12, ((1R,4R,7R)-7-amino-2-azabicyclo[2.2.1]heptan-2-yl)(2-(4-(cyclopropylmethyl)-3-(tetrahydrofuran-3-yl)-4H-thieno[3,2-b]pyrrol-5-yl)-7-methoxy-1-methyl-1H-benzo[d]imidazol-5-yl)methanone] | 7.31 |
| COc1cc(C(=O)N2C[C@H]3CC[C@@H]2[C@@H]3N)cc2nc(-c3cc4scc(C5CC(NC(C)=O)C5)c4n3CC3CC3)n(C)c12 (stereo partly drawn) [Example 5, N-(3-(5-(5-((1R,4R,7R)-7-amino-2-azabicyclo[2.2.1]heptane-2-carbonyl)-7-methoxy-1-methyl-1H-benzo[d]imidazol-2-yl)-4-(cyclopropylmethyl)-4H-thieno[3,2-b]pyrrol-3-yl)cyclobutyl)acetamide] | 7.72 |
| COc1cc(C(=O)N2C[C@H]3CC[C@@H]2[C@@H]3N)cc2nc(-c3cc4scc(C5CC(O)C5)c4n3CC3CC3)n(C)c12 (mixture of isomers) [Example 7, cis/trans-((1R,4R,7R)-7-amino-2-azabicyclo[2.2.1]heptan-2-yl)(2-(4-(cyclopropylmethyl)-3-(3-hydroxycyclobutyl)-4H-thieno[3,2-b]pyrrol-5-yl)-7-methoxy-1-methyl-1H-benzo[d]imidazol-5-yl)methanone] | 7.47 |
| COc1cc(C(=O)N2C[C@H]3CC[C@@H]2[C@@H]3N)cc2nc(-c3cc4sc(C)cc4n3CC3CC3)n(C)c12 [Example 27, ((1R,4R,7R)-7-amino-2-azabicyclo[2.2.1]heptan-2-yl)(2-(4-(cyclopropylmethyl)-2-methyl-4H-thieno[3,2-b]pyrrol-5-yl)-7-methoxy-1-methyl-1H-benzo[d]imidazol-5-yl)methanone] | 7.21 |
| COc1cc(C(=O)N2C[C@H]3CC[C@@H]2[C@@H]3N)cc2nc(-c3cc4scc(C5CCCNC5)c4n3CC3CC3)n(C)c12 (single isomer, unassigned) [Example 9] | 7.40 |
| COc1cc(C(=O)N2C[C@H]3CC[C@@H]2[C@@H]3N)cc2nc(-c3cc4scc(C5CCC(O)CC5)c4n3CC3CC3)n(C)c12 (mixture of isomers) [Example 10, cis/trans-((1R,4R,7R)-7-amino-2-azabicyclo[2.2.1]heptan-2-yl)(2-(4-(cyclopropylmethyl)-3-(4-hydroxycyclohexyl)-4H-thieno[3,2-b]pyrrol-5-yl)-7-methoxy-1-methyl-1H-benzo[d]imidazol-5-yl)methanone] | 7.34 |
| COc1cc(C(=O)N2C[C@H]3CC[C@@H]2[C@@H]3N)cc2nc(-c3cc4sc(Br)cc4n3CC3CC3)n(C)c12 [Example 24, ((1R,4R,7R)-7-Amino-2-azabicyclo[2.2.1]heptan-2-yl)(2-(2-bromo-4-(cyclopropylmethyl)-4H-thieno[3,2-b]pyrrol-5-yl)-7-methoxy-1-methyl-1H-benzo[d]imidazol-5-yl)methanone] | 7.39 |

Now from value to molecule:

| pIC50 | SMILES |
| --- | --- |
| 7.62 | COc1cc(C(=O)N2C[C@H]3CC[C@@H]2[C@@H]3N)cc2nc(-c3cc4scc(-c5cc[nH]n5)c4n3CC3CC3)n(C)c12 [Example 40, ((1R,4R,7R)-7-amino-2-azabicyclo[2.2.1]heptan-2-yl)(2-(4-(cyclopropylmethyl)-3-(1H-pyrazol-3-yl)-4H-thieno[3,2-b]pyrrol-5-yl)-7-methoxy-1-methyl-1H-benzo[d]imidazol-5-yl)methanone] |
| 7.29 | COc1cc(C(=O)N2C[C@H]3CC[C@@H]2[C@@H]3N)cc2nc(-c3cc4scc(-c5cnn(CC(F)F)c5)c4n3CC3CC3)n(C)c12 [Example 43, ((1R,4R,7R)-7-amino-2-azabicyclo[2.2.1]heptan-2-yl)(2-(4-(cyclopropylmethyl)-3-(1-(2,2-difluoroethyl)-1H-pyrazol-4-yl)-4H-thieno[3,2-b]pyrrol-5-yl)-7-methoxy-1-methyl-1H-benzo[d]imidazol-5-yl)methanone] |
| 7.23 | COc1cc(C(=O)N2C[C@H]3CC[C@@H]2[C@@H]3N)cc2nc(-c3cc4scc(-c5cnn(CC(F)(F)F)c5)c4n3CC3CC3)n(C)c12 [Example 42, ((1R,4R,7R)-7-amino-2-azabicyclo[2.2.1]heptan-2-yl)(2-(4-(cyclopropylmethyl)-3-(1-(2,2,2-trifluoroethyl)-1H-pyrazol-4-yl)-4H-thieno[3,2-b]pyrrol-5-yl)-7-methoxy-1-methyl-1H-benzo[d]imidazol-5-yl)methanone] |
| 7.21 | COc1cc(C(=O)N2C[C@H]3CC[C@@H]2[C@@H]3N)cc2nc(-c3cc4scc(Nc5ccncc5)c4n3CC3CC3)n(C)c12 [Example 49, ((1R,4R,7R)-7-Amino-2-azabicyclo[2.2.1]heptan-2-yl)(2-(4-(cyclopropylmethyl)-3-(pyridin-4-ylamino)-4H-thieno[3,2-b]pyrrol-5-yl)-7-methoxy-1-methyl-1H-benzo[d]imidazol-5-yl)methanone] |
| 7.54 | COc1cc(C(=O)N2C[C@H]3CC[C@@H]2[C@@H]3N)cc2nc(-c3cc4scc(-c5cnn(C6CCOCC6)c5)c4n3CC3CC3)n(C)c12 [Example 48, ((1R,4R,7R)-7-amino-2-azabicyclo[2.2.1]heptan-2-yl)(2-(4-(cyclopropylmethyl)-3-(1-(tetrahydro-2H-pyran-4-yl)-1H-pyrazol-4-yl)-4H-thieno[3,2-b]pyrrol-5-yl)-7-methoxy-1-methyl-1H-benzo[d]imidazol-5-yl)methanone] |
| 7.23 | COc1cc(C(=O)N2C[C@H]3CC[C@@H]2[C@@H]3N)cc2nc(-c3cc4scc(-c5ccc(O)c(F)c5)c4n3CC3CC3)n(C)c12 [Example 36, ((1R,4R,7R)-7-amino-2-azabicyclo[2.2.1]heptan-2-yl)(2-(4-(cyclopropylmethyl)-3-(3-fluoro-4-hydroxyphenyl)-4H-thieno[3,2-b]pyrrol-5-yl)-7-methoxy-1-methyl-1H-benzo[d]imidazol-5-yl)methanone] |
| 7.00 | COc1cc(C(=O)N2C[C@H]3CC[C@@H]2[C@@H]3N)cc2nc(-c3cc4scc(-c5cccs5)c4n3CC3CC3)n(C)c12 [Example 38, ((1R,4R,7R)-7-amino-2-azabicyclo[2.2.1]heptan-2-yl)(2-(4-(cyclopropylmethyl)-3-(thiophen-2-yl)-4H-thieno[3,2-b]pyrrol-5-yl)-7-methoxy-1-methyl-1H-benzo[d]imidazol-5-yl)methanone] |
| 7.27 | COc1cc(C(=O)N2C[C@H]3CC[C@@H]2[C@@H]3N)cc2nc(-c3cc4scc(-c5ccn(C)n5)c4n3CC3CC3)n(C)c12 [Example 37, ((1R,4R,7R)-7-amino-2-azabicyclo[2.2.1]heptan-2-yl)(2-(4-(cyclopropylmethyl)-3-(1-methyl-1H-pyrazol-3-yl)-4H-thieno[3,2-b]pyrrol-5-yl)-7-methoxy-1-methyl-1H-benzo[d]imidazol-5-yl)methanone] |
| 7.17 | COc1cc(C(=O)N2C[C@H](N)C[C@@H](F)C2)cc2nc(-c3cc4sc(C)cc4n3CC3CC3)n(C)c12 [Example 28, ((3R,5R)-3-amino-5-fluoropiperidin-1-yl)(2-(4-(cyclopropylmethyl)-2-methyl-4H-thieno[3,2-b]pyrrol-5-yl)-7-methoxy-1-methyl-1H-benzo[d]imidazol-5-yl)methanone] |
| 7.07 | COc1cc(C(=O)N2C[C@H](N)C[C@@H](F)C2)cc2nc(-c3cc4sccc4n3CC3CC3)n(C)c12 [Example 30, ((3R,5R)-3-amino-5-fluoropiperidin-1-yl)(2-(4-(cyclopropylmethyl)-4H-thieno[3,2-b]pyrrol-5-yl)-7-methoxy-1-methyl-1H-benzo[d]imidazol-5-yl)methanone] |
